Tests used:
Microcystis [1] = conditions: in vivo
Planktothrix agardhii [2] = conditions: cited from earlier work
Planktothrix agardhii [3] = conditions: equivalent of 2.5 mg/L in 1140 L, 9500 cm^2
Microcystis [4] = conditions: cited from earlier work
[5] = Buoyancy of sodium percarbonate in 15 ml vials; assay type: physicochemical; conditions: 5 grams, FIG. 5
[6] = Buoyancy by weighing-pan set-up (FIG. 2); assay type: physicochemical
Excerpt: FIG. 2 schematically illustrates an experimental set-up for testing the buoyancy of the herein disclosed compositions, including (1) a balance; (2) a measuring pod with an aperture; (3) an underneath hook to measure weight; (4) a beaker filled with water simulating an aquatic system; (5) a weighing-pan.
In order to test the buoyancy of the herein disclosed compositions, an experimental set-up, schematically illustrated in FIG. 2, was applied. In this set-up, a laboratory balance 1 (0-2,000±0.1 g) was positioned to measure the weight of a composition placed on a weighing-pan 5 immersed in a beaker filled with water 4. If the composition is non-buoyant (AI without the coating material) an increase in weight is anticipated (‘negative control’). Oppositely, if the composition is buoyant, the weight is expected to remain essentially unchanged.

[7] = test system: algal bloom (cyanobacterial biomass); experiment: Seasonal treatment of algal bloom at ~1.04 km^2 irrigation pond; assay type: in vivo
Experimental: As detailed in FIG. 9, biomass and total copper concentrations were measured during the first two days to assess efficacy and minimal required AI concentrations. Cyanobacterial biomass was measured using a YSI Exo-3 probe that was supplied with a GPS. […] Water samples for total copper concentrations, as well as estimation of particle time travel on the water, as well as final coverage, was done with a kayak and by using a laser distance/range measurer. Total copper concentrations were measured with a YSI 9300 photometer in accordance with manufacturer instructions.

[8] = Sedimentation analysis in 10-liter cylinders with sediment; assay type: physicochemical; conditions: 10-liter cylinder, after one hour, FIG. 6
Experimental: Two 10-liter cylinders were filled with water and supplemented with sediment. To one cylinder, granules of copper sulfate pentahydrate (mimicking standard treatment) were added, while a buoyant copper-based composition was added to the other cylinder.

[9] = Buoyancy and resurfacing of coated copper sulfate compositions in water (vials, glasses; visual); assay type: physicochemical; conditions: granular copper sulfate with different % (w/w) coating placed in water, FIG. 1

## OO [H2O2, hydrogen peroxide]
Microcystis [1]
  H2O2 amount per surface area at which Microcystis decreased: ≥ 2.44 gr/m^2
Planktothrix agardhii [2]; Plexiglas containers, 2*10^6 cells/mL
  lowest H2O2 concentration that sufficed to significantly reduce the P. agardhii population: 2.5 mg/L
Planktothrix agardhii [2]; at 2.5 mg/L H2O2
  photosynthetic performance and cell counts of zooplankton population: severely reduced
Planktothrix agardhii [2]; natural water body
  time until cyanobacteria population started to recover: 6-7 weeks
Planktothrix agardhii [3]
  lowest effective H2O2 amount per surface area: 2.85 gr/m^2
Microcystis [4]; 150 L mesocosm
  H2O2 dose at which abundance of Microcystis decreased: ≥ 4 mg/L
Microcystis [4]; H2O2 dose 2 mg/L
  cell density of Microcystis: did not decrease
Microcystis [4]; H2O2 dose of 2 mg/L
  time to reappearance of high Microcystis cell density: 11 days

## O=C([O-])[O-].O=C([O-])[O-].OO.OO.OO.[Na+].[Na+].[Na+].[Na+] [uncoated sodium percarbonate, sodium percarbonate]
[5]
  buoyancy in water: sank immediately

## copper sulfate pentahydrate
[6]; samples of 100 grams, set-up of FIG. 2
  weight increase on weighing-pan: 50%±3%
[7]; 2015, 6 aerial applications, total of 8,000 kg
  average chlorophyll-a concentration: 100-200 μg chlorophyll-a/L
[7]; 2016, 7 aerial applications of 2000 kg
  average cyanobacterial concentration (chlorophyll-a): 60 to 80 µg/L
[8]
  behaviour in water column with sediment: immediately sank into the sediment
[9]; listed as non-coated active ingredient (0.0% (w/w))
  buoyancy in water (floating, sinking, resurfacing): sank immediately to the bottom
[9]; listed as raw copper salt (“0% coating”)
  buoyancy in water (floating, sinking, resurfacing): sunk immediately after dispersion

## O=c1nc([O-])n(Cl)c(=O)n1Cl.[Na+] [un-encapsulated NADCC, sodium dichloroisocyanurate]
[6]; 9.5 grams placed on the weighing-pan in water
  weight increase on weighing-pan: ~5.3 g
